Results on 13 compounds are retold here after US10934297B2, “5-heteroaryl substituted indazole-3-carboxamides and preparation and use thereof” (Samumed, LLC, priority 2018, dated 2021).

The term EC50 denotes the midpoint of the concentration-response curve. A higher EC50 goes with a less potent agent. As a reminder, the IC50 is the concentration needed to halve the response being measured. Usually inhibition stands for the drop in the measured response relative to a control, in per cent.

For experiment [1], the system named is Wnt activity (Sp5-Luc reporter in SW480 cells). Put plainly: Screening assay for Wnt activity: Sp5-Luc reporter gene assay in SW480 colon carcinoma cells. The settings on record: Homo sapiens, 36 to 48 hours. In kind it is cell-based, human. Summed up: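 EC50 values come from a variable-slope four-parameter fit of luminescence normalized to DMSO-only wells. The read-out follows 36–48 h incubation at 37 °C, 5% CO2, in DMEM containing 1% fetal bovine serum. Cells are hygromycin-selected SW480 stably expressing firefly luciferase under a Wnt-responsive Sp5 promoter (eight TCF/LEF sites).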

In a further experiment the target is DYRK1A kinase (Homo sapiens (Human), UniProt Q13627). Put plainly: DYRK1A kinase assay (Ser/Thr 18 peptide Z-lyte FRET). It counts as biochemical. The settings on record: read-out: EC50 (method: IC50). The essentials:
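Kinase reactions with compound ran 1 h at room temperature in duplicate, and development reagent was then added for another hour.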

A further experiment concerns the target GSK3β kinase (Homo sapiens (Human), UniProt P49841). Put plainly: GSK3β kinase assay (Ser/Thr 09 peptide Z-lyte FRET). It counts as biochemical. The following applies: read-out: EC50 (method: IC50). Summed up:
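Non-radioactive Z-lyte FRET read-out, kinase activity expressed as coumarin/fluorescein emission ratio. Compounds incubated with the reaction mixture one hour at room temperature in duplicate, then development buffer added for another hour. IC50 from non-linear regression of dose-response curves.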

The subject of experiment [2] is SW480 colon carcinoma cells. The experiment in a line: Cell viability assay (CellTiter-Glo) in SW480 colon carcinoma cells. In kind it is cell-based, human. The settings on record: Homo sapiens, 96 h, four days. The essentials:
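Viability was taken from CellTiter-Glo ATP luminescence, read about 12 min after reagent addition, relative to DMSO controls. The cells were Sp5-Luc reporter SW480 colon carcinoma cells, 2,000/well in 1% FBS DMEM, exposed to compound for four days at 37 °C.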
On the technique in general: In ATP-based viability assays light output follows the ATP content of the culture.

For experiment [3], the system named is primary human fibroblasts derived from IPF patients (LL29 cells). The experiment in a line: Inhibition of the fibrotic process: αSMA staining in TGF-β1 treated LL29 fibroblasts. In kind it is cell-based. The following applies: Homo sapiens, Fibroblast, 96 h; LL29 cells, TGF-β1 20 ng/mL, 4 days, % αSMA positive cells. Summed up:
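LL29 fibroblasts from IPF patients, in F12 medium with 1% FBS, treated with TGF-β1 plus compound; TGF-β1 with DMSO as positive control, DMSO alone as negative control. After 4 days' incubation, SYTOX green nucleic acid stain added at 1 μM final, 30 min at room temperature.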

Another experiment has as its system IL-6. Put plainly: IL-6 inhibition in LPS-stimulated human peripheral blood mononuclear cells (HTRF). The following applies: Homo sapiens, PBMC; for EC50: huPBMCs, LPS 50 ng/mL, 22 hours, IL-6 HTRF; for inhibition at 10 µM: read-out: percent inhibition at 10 μM. In kind it is cell-based. Summed up:
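HTRF 665/620 nm ratio, read after 3 h antibody incubation at room temperature, quantified IL-6 released by fresh human PBMCs (1×10e6 cells/mL, 1% FBS-RPMI). The cells got compound, then 50 ng/mL LPS at 2 h, followed by a further 22 h at 37° C. EC50 came from DMSO-normalized readings run in duplicate.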
On the technique in general: TR-FRET usually uses a lanthanide donor and a delayed reading to cut background.

Experiment [4] deals with primary human mesenchymal stem cells (hMSCs). The experiment in a line: Tenocyte differentiation assay (SCXA-positive cells) in hMSCs. The settings on record: for EC50: Homo sapiens, Mesenchymal stem cells, 96 h, hMSCs, 4 days, SCXA positive cells; for percent in parentheses under EC50 >100: given for EC50 >100 μM, meaning not defined in this example. It counts as cell-based. From the text:
Representative compounds were screened using primary human mesenchymal stem cells (hMSCs) to determine their ability to induce tenocyte differentiation (process by which tendon is developed).
Primary human mesenchymal stem cells (hMSCs) were purchased from Lonza (Walkersville, Md.) and expanded in Mesenchymal Stem Cell Growth Media (Lonza). Cells between passage 3 and 6 were used for the experiments.
Cells were fixed using 4% formaldehyde (Electron Microscopy Sciences), and stained with anti-Sclerasis (anti-SCXA) antibodies (Abgent, San Diego, Calif.) [Webb S., et.al., Retinoic acid receptor signaling preserves tendon stem cell characteristics and prevents spontaneous differentiation in vitro, Stem Cell Research & Therapy 2016, 7:45] overnight at 4° C. […] Number of cells positive for SCXA in each well was quantified using the CellInsight CX5. Data was normalized to the average of 12 DMSO treated wells on the same plate using Dotmatics Studies module. The normalized averages (fold change over DMSO) of 3 replicate wells for each compound concentration were calculated. Due to solubility limitations of some of the compounds, values for higher doses were manually corrected and curve fitting and EC50 determinations were performed using Dotmatics Studies.

Each structure is given as a SMILES string.

Sequence of GSK3β kinase (P49841 whole entry): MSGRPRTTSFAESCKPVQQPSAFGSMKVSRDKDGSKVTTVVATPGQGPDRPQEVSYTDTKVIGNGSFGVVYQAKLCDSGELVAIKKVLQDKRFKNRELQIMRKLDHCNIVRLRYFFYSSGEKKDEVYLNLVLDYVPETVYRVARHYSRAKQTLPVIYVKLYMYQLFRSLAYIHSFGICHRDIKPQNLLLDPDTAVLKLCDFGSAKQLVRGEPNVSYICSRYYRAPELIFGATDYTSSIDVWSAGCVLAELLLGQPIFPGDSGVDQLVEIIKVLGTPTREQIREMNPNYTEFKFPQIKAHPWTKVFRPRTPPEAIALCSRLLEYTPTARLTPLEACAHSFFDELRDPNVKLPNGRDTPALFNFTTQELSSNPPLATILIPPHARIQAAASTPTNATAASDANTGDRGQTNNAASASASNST

Consider `Cn1cc(-c2ccc3[nH]nc(C(=O)NC45CC6CC(CC(C6)C4)C5)c3c2)cn1` [Compound 137, N-((3s,5s,7s)-Adamantan-1-yl)-5-(1-methyl-1H-pyrazol-4-yl)-1H-indazole-3-carboxamide], for which the EC50 was 4.24 µM in experiment [1]; 5.22 µM in experiment [2]; 2.09 µM in experiment [3]; over 10 µM with IL-6; 2.48 µM in experiment [4]. Besides, the half-maximal inhibitory concentration (IC50) on DYRK1A kinase came to 8.29 µM; on GSK3β kinase, 1.34 µM.

As to `Cc1coc(NC(=O)c2n[nH]c3cc(F)c(-c4cnn(C5CCN(C)CC5)c4)cc23)n1` [Compound 138, 6-Fluoro-N-(4-methyloxazol-2-yl)-5-(1-(1-methylpiperidin-4-yl)-1H-pyrazol-4-yl)-1H-indazole-3-carboxamide], the EC50 was 0.125 µM in experiment [1]; 0.105 µM in experiment [2]; 0.435 µM in experiment [3]; 2.73 µM in the experiment with IL-6; 4.92 µM in experiment [4]. The IC50 on DYRK1A kinase turned out to be 0.006 µM; at GSK3β kinase, 0.193 µM.

Consider `Cn1cc(-c2ccc3[nH]nc(C(=O)Nc4cnn(C5CCNCC5)c4)c3c2)cn1` [Compound 140, 5-(1-Methyl-1H-pyrazol-4-yl)-N-(1-(piperidin-4-yl)-1H-pyrazol-4-yl)-1H-indazole-3-carboxamide], for which the EC50 in experiment [1] was 0.713 µM; in experiment [2], 2.6 µM; in experiment [3], 0.301 µM; in the experiment with IL-6, 1.25 µM; in experiment [4], over 100 µM. The concentration for half-maximal inhibition (IC50) amounted to 0.002 µM at DYRK1A kinase and 0.005 µM at GSK3β kinase. Besides, in experiment [4], the “percent in parentheses under EC50 >100” value is “(12.6%)”.

With `CN1CCC(n2cc(NC(=O)c3n[nH]c4ccc(-c5cnn(C)c5)cc34)cn2)CC1` [Compound 141, 5-(1-Methyl-1H-pyrazol-4-yl)-N-(1-(1-methylpiperidin-4-yl)-1H-pyrazol-4-yl)-1H-indazole-3-carboxamide], the half-maximal effective concentration (EC50) in experiment [1] worked out at 0.079 µM; in experiment [2], 0.064 µM; in experiment [3], 0.103 µM; with IL-6, 0.382 µM; in experiment [4] it was 0.93 µM. Moreover, the IC50 on DYRK1A kinase came to 0.001 µM; on GSK3β kinase it was 0.004 µM.

`CN1CCC(n2cc(-c3ccc4[nH]nc(C(=O)Nc5cnn(C)c5)c4c3)cn2)CC1` [Compound 142, N-(1-Methyl-1H-pyrazol-4-yl)-5-(1-(1-methylpiperidin-4-yl)-1H-pyrazol-4-yl)-1H-indazole-3-carboxamide]: the 50% effective concentration (EC50) was 0.13 µM in experiment [1]; 0.116 µM in experiment [2]; 0.115 µM in experiment [3]; 1.1 µM in the experiment with IL-6; over 100 µM in experiment [4]. For the same compound, the IC50 at DYRK1A kinase amounted to 0.008 µM; at GSK3β kinase, 0.208 µM. Besides, the “percent in parentheses under EC50 >100” value in experiment [4] is recorded as “(38.2%)”.

On to `Cc1cc(NC(=O)c2n[nH]c3ccc(-c4cnn(C5CCN(C)CC5)c4)cc23)sn1` [Compound 143, N-(3-Methylisothiazol-5-yl)-5-(1-(1-methylpiperidin-4-yl)-1H-pyrazol-4-yl)-1H-indazole-3-carboxamide], for which the EC50 in experiment [1] is 0.09 µM; in experiment [2], 0.06 µM; in experiment [3], 0.207 µM; in the experiment on IL-6, 1.41 µM; in experiment [4] it was over 100 µM. Also, the half-inhibitory concentration (IC50) worked out at 0.005 µM at DYRK1A kinase and 0.052 µM on GSK3β kinase. In addition, the “percent in parentheses under EC50 >100” value in experiment [4] is reported as “(23.0%)”.

Regarding `Cc1cnc(NC(=O)c2n[nH]c3ccc(-c4cnn(C5CCN(C)CC5)c4)cc23)s1` [Compound 144, 5-(1-(1-Methylpiperidin-4-yl)-1H-pyrazol-4-yl)-N-(5-methylthiazol-2-yl)-1H-indazole-3-carboxamide], the half-maximal effective concentration (EC50) in experiment [1] was over 10 µM; in experiment [2], 1.3 µM; in experiment [3], 2.19 µM; in the experiment on IL-6 it was over 10 µM; in experiment [4] it was over 100 µM. The 50% inhibitory concentration (IC50) on DYRK1A kinase worked out at 0.008 µM; on GSK3β kinase it was 6.44 µM. The inhibition at 10 µM with IL-6 worked out at 49%. The “percent in parentheses under EC50 >100” value in experiment [4] is “(27.4%)”.

For `CC(C)CN1CC[C@H](NC(=O)c2n[nH]c3ccc(-c4cn[nH]c4)cc23)[C@@H](F)C1` [Compound 145, N-((3 S,4S)-3-Fluoro-1-isobutylpiperidin-4-yl)-5-(1H-pyrazol-4-yl)-1H-indazole-3-carboxamide], the 50% effective concentration (EC50) in experiment [1] turned out to be 0.345 µM; in experiment [2], 0.372 µM; in experiment [3] it was 0.1 µM; in the experiment with IL-6, 1.14 µM; in experiment [4] it was 0.863 µM. Also, the values for the IC50 at DYRK1A kinase and on GSK3β kinase were 0.037 µM and 0.041 µM, respectively.

Consider `CN1CCC(CNC(=O)c2n[nH]c3ccc(-c4cnn(C)c4)cc23)CC1` [Compound 147, 5-(1-Methyl-1H-pyrazol-4-yl)-N-((1-methylpiperidin-4-yl)methyl)-1H-indazole-3-carboxamide], for which the half-maximal effective concentration (EC50) in experiment [1] was 3.87 µM; in experiment [2], 6.7 µM; in experiment [3] it was 0.723 µM; with IL-6 it was 1.07 µM; in experiment [4] it was 2.64 µM. For the same compound, the values for the IC50 on DYRK1A kinase and at GSK3β kinase were 0.026 µM and 0.015 µM, respectively.

With `Cc1ncc(-c2ccc3[nH]nc(C(=O)NC4CCN(c5ccc(F)cc5)CC4)c3c2)n1C` [Compound 148, 5-(1,2-Dimethyl-1H-imidazol-5-yl)-N-(1-(4-fluorophenyl)piperidin-4-yl)-1H-indazole-3-carboxamide], the concentration for a half-maximal effect (EC50) in experiment [1] was 4.49 µM; in experiment [2] it was 8.02 µM; in experiment [3], 4.62 µM; in the experiment with IL-6 it was over 10 µM; in experiment [4], 3.09 µM. The figures for the IC50 at DYRK1A kinase and on GSK3β kinase were 0.049 µM and 0.057 µM, respectively. In addition, the inhibition at 10 µM with IL-6 is 24.2%.

Regarding `CN1CCN(c2cccc(NC(=O)c3n[nH]c4cc(F)c(-c5cnn(C)c5)cc34)c2)CC1` [Compound 149, 6-Fluoro-5-(1-methyl-1H-pyrazol-4-yl)-N-(3-(4-methylpiperazin-1-yl)phenyl)-1H-indazole-3-carboxamide], the EC50 in experiment [1] was 0.217 µM; in experiment [2] it was 0.331 µM; in experiment [3], over 10 µM; in the experiment on IL-6, over 10 µM; in experiment [4], over 100 µM. The IC50 stood at 0.001 µM at DYRK1A kinase and 0.049 µM on GSK3β kinase. For the same compound, the inhibition at 10 µM with IL-6 was 44.7%. Further, the “percent in parentheses under EC50 >100” value in experiment [4] is “(36.0%)”.

On to `Cn1cc(-c2cc3c(C(=O)Nc4cccc(OC5CCNCC5)c4)n[nH]c3cc2F)cn1` [Compound 150, 6-Fluoro-5-(1-methyl-1H-pyrazol-4-yl)-N-(3-(piperidin-4-yloxy)phenyl)-1H-indazole-3-carboxamide], for which the EC50 in experiment [1] was 0.248 µM; in experiment [2], 0.214 µM; in experiment [3], 0.317 µM; in the experiment on IL-6 it was 3.57 µM; in experiment [4], over 100 µM. Besides, the IC50 at DYRK1A kinase was found to be 0.004 µM; on GSK3β kinase, 0.052 µM. Also, the “percent in parentheses under EC50 >100” value in experiment [4] was “(17.4%)”.

Take `CN1CCC(Oc2cccc(NC(=O)c3n[nH]c4cc(F)c(-c5cnn(C)c5)cc34)c2)CC1` [Compound 151, 6-Fluoro-5-(1-methyl-1H-pyrazol-4-yl)-N-(3-((1-methylpiperidin-4-yl)oxy)phenyl)-1H-indazole-3-carboxamide]: the EC50 in experiment [1] was 0.113 µM; in experiment [2], 0.258 µM; in experiment [3] it was over 10 µM; in the experiment on IL-6 it was 7.37 µM; in experiment [4], over 100 µM. For the same compound, the concentration for half-maximal inhibition (IC50) stood at 0.005 µM at DYRK1A kinase and 0.08 µM at GSK3β kinase. Besides, the “percent in parentheses under EC50 >100” value in experiment [4] is listed as “(3.5%)”.
